According to US20240307345A1, “R-MDMA and S-MDMA TO ASSIST PSYCHOTHERAPY” (Universitatsspital Basel, priority 2022, published 2024):
Entries after “also recorded” stand apart in the source; their conditions may differ.

Tests used:
healthy subjects [1] = test: Autonomic effects (blood pressure, heart rate, body temperature); assay type: in vivo, human; conditions: 125 mg
Protocol: (§1) Study design: The present study compares the acute subjective, physiological and endocrine effects of S-MDMA (125 mg), R-MDMA (125 and 250 mg), MDMA (125 mg) using a placebo-controlled double-blind 5-period cross-over design in 24 healthy subjects. Conditions are 1.) R-MDMA 125 mg, 2). R-MDMA 250 mg, 3) S-MDMA 125 mg, 4) MDMA 125 mg, 5) placebo. Treatment order is counterbalanced. Washout periods between substance administrations are at least 10 days. Study days include a 10-hour study session with a subsequent single measurement (short visit) the next morning (24 hours after drug administration).
Autonomic measures: Blood pressure, heart rate, and body temperature are recorded at baseline and repeatedly throughout the session. Blood pressure (systolic and diastolic) and heart rate are measured with an automatic oscillometric device. Body temperature is measured with an ear thermometer. Emax is determined for each of the measures and for each study session. These Emax values are then compared between drug conditions using analysis of variance.

[2] = 75 mg; earlier study; cited from earlier work
healthy subjects [3] = test: Clinical cross-over study, overall comparison of the substances; assay type: in vivo, human; conditions: conclusion over the doses tested
Protocol: as §1

healthy subjects [4] = test: Connectedness subscale of the PES questionnaire; assay type: in vivo, human; conditions: 125 mg
healthy subjects [5] = test: Acute subjective effects on the Visual Analog Scale (VAS); assay type: in vivo, human; conditions: 125 mg; compared with both R-MDMA doses and placebo
Protocol: as §1
Study procedures: The study takes place at the University Hospital Basel. Each of the test sessions last from 8:00 until 18:00 with a short visit the next morning (24 hours after application). An indwelling intravenous catheter is inserted into a subcutaneous vein of the forearm and baseline psychometric measures are obtained. Administration of the substance is at 9:00. Outcome measures (see below) are repeatedly assessed during the study session. Subjects are under continuous medical supervision until any alterations of consciousness have completely subsided and they leave the research facility.
Psychometric assessments: Visual Analog Scale (VAS): VASs is repeatedly used to assess subjective alterations in consciousness over time. Single scales are presented as 100 mm horizontal lines marked with “not at all” on the left and “extremely” on the right. The following VAS items are used: “any drug effect”, “good drug effect”, “bad drug effect”, “stimulated”, “liking”, “happy”, “content”, “talkative”, “open”, “trust”, “feeling close to others”, “anxiety”, “alteration of vision”, “alterations of hearing”, “sounds seem to influence what I see”, “alteration of sense of time”, “the boundaries between myself and my surroundings seem to blur”, “want to be with other people”, and “want to be alone”. Scales are administered before and repeatedly after substance administration and take approximately 2 minutes to fill out. The maximal ratings (Emax, 0-100) and areas under the effect-time curve (AUEC) are defined for each VAS and Emax and AUEC values compared between treatments using analysis of variance. 5-Dimensions of Altered States of Consciousness (5D-ASC): The 5 Dimensions of Altered States of Consciousness (5D-ASC) Scale is a questionnaire containing visual analog scales for 94 items (Studerus et al., 2010). The instrument contains five scales assessing mood, anxiety, derealization, depersonalization, changes in perception, auditory alterations, and reduced vigilance. The scale is well-validated (Studerus et al., 2010) and used internationally to evaluate effects of many other psychoactive substances. The overall psychedelic experience is reflected by the total […] score. Each item of the scale is scored on a 0-100 mm VAS. The attribution of the individual items to the subscales of the 5D-ASC is analyzed according to (Studerus et al., 2010). The 5D-ASC scale is administered once at the end of the session and subjects are instructed to retrospectively rate peak alterations that have been experienced during the study session. Adiective Mood Rating Scale (AMRS): The Adjective Mood Rating Scale (AMRS or EWL60S) is a 60-item Likert scale that allows repeated assessment of mood in 6 dimensions: Activation, inactivation, well-being, anxiety/depressed mood, extra- and introversion, and emotional excitability. The German EWL60S version is used. The AMRS consists of subscales measuring “activation,” “positive mood,” “extraversion,” “introversion,” “inactivation,” and “emotional excitability. The scale has previously been used to evaluate effects of many other psychoactive substances. Emax and AUEC scores will be defined for each subscale and compared between treatments using analysis of variance. The AMRS is administered repeatedly throughout the study session and once 3 days after each session. […]

mice [6] = conditions: cited from earlier work
healthy subjects [7] = test: Alteration of mind and mystical-type effects on 5D-ASC and MEQ questionnaires; assay type: in vivo, human; conditions: 125 mg
Protocol: as §1
(§2) Psychometric assessments: Visual Analog Scale (VAS): VASs is repeatedly used to assess subjective alterations in consciousness over time. Single scales are presented as 100 mm horizontal lines marked with “not at all” on the left and “extremely” on the right. The following VAS items are used: “any drug effect”, “good drug effect”, “bad drug effect”, “stimulated”, “liking”, “happy”, “content”, “talkative”, “open”, “trust”, “feeling close to others”, “anxiety”, “alteration of vision”, “alterations of hearing”, “sounds seem to influence what I see”, “alteration of sense of time”, “the boundaries between myself and my surroundings seem to blur”, “want to be with other people”, and “want to be alone”. Scales are administered before and repeatedly after substance administration and take approximately 2 minutes to fill out. The maximal ratings (Emax, 0-100) and areas under the effect-time curve (AUEC) are defined for each VAS and Emax and AUEC values compared between treatments using analysis of variance. 5-Dimensions of Altered States of Consciousness (5D-ASC): The 5 Dimensions of Altered States of Consciousness (5D-ASC) Scale is a questionnaire containing visual analog scales for 94 items (Studerus et al., 2010). The instrument contains five scales assessing mood, anxiety, derealization, depersonalization, changes in perception, auditory alterations, and reduced vigilance. The scale is well-validated (Studerus et al., 2010) and used internationally to evaluate effects of many other psychoactive substances. The overall psychedelic experience is reflected by the total […] score. Each item of the scale is scored on a 0-100 mm VAS. The attribution of the individual items to the subscales of the 5D-ASC is analyzed according to (Studerus et al., 2010). The 5D-ASC scale is administered once at the end of the session and subjects are instructed to retrospectively rate peak alterations that have been experienced during the study session. Adiective Mood Rating Scale (AMRS): The Adjective Mood Rating Scale (AMRS or EWL60S) is a 60-item Likert scale that allows repeated assessment of mood in 6 dimensions: Activation, inactivation, well-being, anxiety/depressed mood, extra- and introversion, and emotional excitability. The German EWL60S version is used. The AMRS consists of subscales measuring “activation,” “positive mood,” “extraversion,” “introversion,” “inactivation,” and “emotional excitability. The scale has previously been used to evaluate effects of many other psychoactive substances. Emax and AUEC scores will be defined for each subscale and compared between treatments using analysis of variance. The AMRS is administered repeatedly throughout the study session and once 3 days after each session. States of Consciousness Questionnaire (SCQ): In the SCQ, 100-items are rated on a six-point scale. Forty-three items embedded into this questionnaire comprise the Mystical Experience Questionnaire (MEQ) (MacLean et al., 2011) which is sensitive to the effects of psychedelic substances such as LSD. […]

mice [8] = conditions: compared with R-MDMA; cited from earlier work
animals = conditions: various animal studies; cited from earlier work
rhesus monkeys = conditions: cited from earlier work
healthy subjects [9] = test: Effects on mood on the Adjective Mood Rating Scale (AMRS); assay type: in vivo, human; conditions: 125 mg
Protocol: as §1, §2

[10] = human; after administration of racemic MDMA; compared to R-MDA; cited from earlier work

| SMILES | body temperature (healthy subjects [1]) | heart rate (healthy subjects [1]; versus placebo) | body temperature [2] | acute subjective effects and adverse effects (healthy subjects [3]) | ratings of connectedness, difference between conditions (healthy subjects [4]) | VAS “talkative,” “open,” “trust,” and “I feel close to others” (healthy subjects [5]) | lethal doses (mice [6]) | acute mystical-type experiences on the 5D-ASC scale (healthy subjects [7]; 24 subjects) | psychedelic effects on the 5D-ASC and the MEQ questionnaires (healthy subjects [7]; compared with placebo (and 125 mg R-MDMA)) | onset of interoceptive effects (mice [8]) | social interaction (animals) | reinforcing properties (rhesus monkeys) | effects on the AMRS (healthy subjects [9]) | plasma levels of the active metabolite [10] | time of peak plasma level of the active metabolite [10] |
| --- | --- | --- | --- | --- | --- | --- | --- | --- | --- | --- | --- | --- | --- | --- | --- |
| CNC(C)Cc1ccc2c(c1)OCO2 (racemic) [(±)-MDMA, ±3,4-methylenedioxymethamphetamine, reference compound] | increased similarly; also recorded: increased body temperature only moderately | increase heart rate comparably and more than with placebo | did not significantly increase body temperature | overall comparable | no difference | higher values | similar | comparable effects with no significant differences | comparable and overall greater psychedelic effects | faster | Increased social interaction | moderate reinforcing properties | comparable effects | – | – |
| C[C@H](N)Cc1ccc2c(c1)OCO2 [S-MDA] | – | – | – | – | – | – | – | – | – | – | – | – | – | higher | peaked earlier |
